From patent publication US20210261621A1, “Preparation of Dilipid Polymixins and Use Thereof as Antimicrobial Adjuvants” (priority 2018, published 2021)
≈ marks a conversion by molar mass, not a printed value. Like-named read-outs stand apart in the source and are kept apart here. Positions of bridges follow the written chain, without caps; N, C: chain ends. Non-standard residues stand in square brackets, D forms with d. Residues, ends and D or L forms follow the SMILES beside them. *: point of attachment. Octanoyl = CCCCCCCC(=O)*; Dab = NCC[C@H](N)C(=O)O; Butyryl = CCCC(=O)*

Assays:
[1] = system: E. coli 94393; type: cell-based, Escherichia coli; settings: 94393
Method: (§1) We then addressed the possibility for the dilipid polymyxins to display enhanced antibacterial activity against colistin-resistant Gram-negative pathogens. […] The extended hydrophobic region of the dilipid polymyxin may provide additional hydrophobic interactions to the outer membrane of colistin-resistant organisms. Eight MDR colistin-resistant Gram-negative bacterial isolates were tested, including two E. coli isolates harboring the mcr-1 plasmid-encoded polymyxin resistance gene. We found no difference between the antibacterial activity of dilipid polymyxins and colistin against colistin-resistant Gram-negative bacteria (Table 3).
(§2) Bacterial strains were either obtained from the American Type Culture Collection (ATCC), Canadian National Intensive Care Unit (CAN-ICU) surveillance study or the Canadian Ward Surveillance (CANWARD) study. Strains from both CAN-ICU and CANWARD are isolates recovered from patients diagnosed with a presumed infectious disease that were admitted in a participating medical center across Canada. Efflux-deficient strain PAO200 (lacking MexAB-OprM efflux system) and PA0750 (lacking MexAB-OprM, MexCD-OprJ, MexEF-OprN, MexJK and MexXY efflux systems, and the outer membrane protein OpmH) were kindly gifted by Dr. Ayush Kumar (University of Manitoba).
(§3) The in vitro antibacterial activity of the compounds studied were assessed by broth microdilution susceptibility testing following CLSI guidelines. Bacterial cultures were grown overnight prior to the assay. The overnight grown cultures were diluted in saline to 0.5 McFarland turbidity, followed by 1:50 dilution in Mueller-Hinton broth (MHB) for inoculation to a final concentration of approximately 5×10^5 colony forming units/mL. Testing was performed on 96-well plates where the tested compounds were 2-fold serially diluted in MHB and incubated with equal volumes of bacterial inoculum at 37° C. for 18 h. […] Wells containing MHB with or without bacterial cells were used as positive or negative control, respectively.

[2] = system: E. coli 94474; type: cell-based, Escherichia coli; settings: 94474
Method: as §1, §2, §3

[3] = system: E. coli ATCC 25922; type: cell-based, Escherichia coli
Excerpt: as §2, §3

[4] = system: E. coli CAN-ICU 61714; type: cell-based, Escherichia coli
Excerpt: as §2, §3

[5] = system: E. coli CAN-ICU 63074; type: cell-based, Escherichia coli
Excerpt: as §2, §3

[6] = system: E. coli 107115; type: cell-based, Escherichia coli; settings: 107115
Excerpt: as §2, §3

[7] = system: P. aeruginosa PAO750; settings: P. aeruginosa PAO750, efflux-deficient strain that lacks five pumps and OpmH
Excerpt: (§4) To our curiosity, we explored whether efflux can affect the activity of polymyxins. It is widely accepted that polymyxins disrupt Gram-negative bacterial membranes that result to intracellular component leakage and bacterial cell death. However, for this to occur requires the agent to reach the periplasmic space to interact and disrupt the inner membrane. Active efflux may potentially expel polymyxins out of the periplasm, effectively reducing its periplasmic and intracellular concentrations. To study the effect of efflux on polymyxins in Gram-negative pathogens, we used P. aeruginosa as they inherently overexpress efflux systems such as MexAB-OprM, MexCD-OprJ and MexXY-OprM. Moreover, antibiotic substrates for these efflux systems are mostly characterized. We evaluated and compared the activity of the dilipid polymyxins, colistin and PMBN against wild-type PAO1 and two efflux-deficient P. aeruginosa isogenic mutants (Table 5). The strain PAO200 lacks the MexAB-OprM efflux system while strain PAO750 lacks five clinically-relevant pumps (MexAB-OprM, MexCD-OprJ, MexEF-OprN, MexJK and MexXY) and outer membrane protein OpmH.
as §2, §3

[8] = system: P. aeruginosa PAO200; settings: for MIC: P. aeruginosa PAO200, efflux-deficient strain that lacks the MexAB-OprM pump
Excerpt: as §4, §2, §3

[9] = system: P. aeruginosa 101243; type: cell-based, Pseudomonas aeruginosa; settings: 101243
Method: as §1, §2, §3

[10] = system: P. aeruginosa 114228; type: cell-based, Pseudomonas aeruginosa; settings: 114228
Method: as §1, §2, §3

[11] = system: P. aeruginosa 91433; type: cell-based, Pseudomonas aeruginosa; settings: 91433
Method: as §1, §2, §3

[12] = system: MRSA ATCC 33592; type: cell-based, Staphylococcus aureus
Excerpt: as §2, §3

[13] = system: S. aureus ATCC 29213; type: cell-based, Staphylococcus aureus
Excerpt: as §2, §3

[14] = system: MSSE CANWARD-2008 81388; type: cell-based, Staphylococcus epidermidis; settings: for MIC: MSSE CANWARD-2008 81388 (methicillin-susceptible Staphylococcus epidermidis)
Excerpt: as §2, §3

[15] = system: K. pneumoniae ATCC 13883; type: cell-based, Klebsiella pneumoniae
Excerpt: as §2, §3

[16] = system: K. pneumoniae 116381; type: cell-based, Klebsiella pneumoniae
Excerpt: as §2, §3

[17] = system: K. pneumoniae 113250; type: cell-based, Klebsiella pneumoniae; settings: 113250
Method: as §1, §2, §3

[18] = system: K. pneumoniae 113254; type: cell-based, Klebsiella pneumoniae; settings: 113254
Method: as §1, §2, §3

[19] = system: A. baumannii 110193; type: cell-based, Acinetobacter baumannii
Excerpt: as §2, §3

[20] = system: A. baumannii ATCC 17978; type: cell-based, Acinetobacter baumannii
Excerpt: as §2, §3

[21] = system: A. baumannii LAC-4; type: cell-based, Acinetobacter baumannii; settings: LAC-4
Excerpt: as §2, §3

[22] = system: A. baumannii CAN-ICU 63169; type: cell-based, Acinetobacter baumannii
Excerpt: as §2, §3

[23] = system: A. baumannii AB031; type: cell-based, Acinetobacter baumannii
Excerpt: as §2, §3

[24] = system: A. baumannii 92247; type: cell-based, Acinetobacter baumannii; settings: 92247
Method: as §1, §2, §3

Row | Structure (SMILES) | MIC [1] [µg/mL] | MIC [2] [µg/mL] | MIC [6] [µg/mL] | MIC [7] [µg/mL] | MIC [8] [µg/mL] | MIC [9] [µg/mL] | MIC [10] [µg/mL] | MIC [11] [µg/mL] | MIC [14] [µg/mL] | MIC [17] [µg/mL] | MIC [18] [µg/mL] | MIC [21] [µg/mL] | MIC [24] [µg/mL] | also measured
1 | CCCC(=O)NCC[C@H](NC(=O)CCC)C(=O)N[C@H](C(=O)N[C@@H](CCN)C(=O)N[C@H]1CCNC(=O)[C@H]([C@@H](C)O)NC(=O)[C@H](CCN)NC(=O)[C@H](CCN)NC(=O)[C@H](CC(C)C)NC(=O)[C@@H](Cc2ccccc2)NC(=O)[C@H](CCN)NC1=O)[C@@H](C)O [Compound 1, Dibutyric Acid (Di-C4) Polymyxin] (Butyryl-[Dab](Butyryl)T[Dab][Dab][Dab][dF]L[Dab][Dab]T; lactam 4-C) | >64 | >64 | 128 (≈ 106 µM) | 8 (≈ 6.65 µM) | 4 (≈ 3.32 µM) | >128 | >128 | >128 | >128 | >64 | >64 | 128 (≈ 106 µM) | >64 | MIC ([3]; E. coli ATCC 25922): >128 µg/mL; MIC ([4]; E. coli CAN-ICU 61714): >128 µg/mL; MIC ([5]; E. coli CAN-ICU 63074): >128 µg/mL; fold difference in MIC against wild-type PAO1 and efflux-deficient PAO200 ([8]; PAO1 versus PAO200 (lacks MexAB-OprM)): 32 fold; MIC ([12]; MRSA ATCC 33592 (methicillin-resistant Staphylococcus aureus)): >128 µg/mL; MIC ([13]; S. aureus ATCC 29213): >128 µg/mL; MIC ([15]; K. pneumoniae ATCC 13883): >128 µg/mL; MIC ([16]; K. pneumoniae 116381): >128 µg/mL; MIC ([19]; A. baumannii 110193): >128 µg/mL; MIC ([20]; A. baumannii ATCC 17978): >128 µg/mL; MIC ([22]; A. baumannii CAN-ICU 63169): >128 µg/mL; MIC ([23]; A. baumannii AB031): >128 µg/mL
2 | CCCCCCCC(=O)NCC[C@H](NC(=O)CCCCCCC)C(=O)N[C@H](C(=O)N[C@@H](CCN)C(=O)N[C@H]1CCNC(=O)[C@H]([C@@H](C)O)NC(=O)[C@H](CCN)NC(=O)[C@H](CCN)NC(=O)[C@H](CC(C)C)NC(=O)[C@@H](Cc2ccccc2)NC(=O)[C@H](CCN)NC1=O)[C@@H](C)O [Compound 2, Dioctanoic Acid (Di-C8) Polymyxin] (Octanoyl-[Dab](Octanoyl)T[Dab][Dab][Dab][dF]L[Dab][Dab]T; lactam 4-C) | 4 (≈ 3.04 µM) | 4 (≈ 3.04 µM) | 2 (≈ 1.52 µM) | 2 (≈ 1.52 µM) | 2 (≈ 1.52 µM) | 32 (≈ 24.3 µM) | 4 (≈ 3.04 µM) | 4 (≈ 3.04 µM) | 8 (≈ 6.08 µM) | >64 | >64 | 16 (≈ 12.2 µM) | 8 (≈ 6.08 µM) | MIC ([3]; ATCC 25922): 4 µg/mL (≈ 3.04 µM); MIC ([4]; CAN-ICU 61714): 32 µg/mL (≈ 24.3 µM); MIC ([5]; CAN-ICU 63074): 64 µg/mL (≈ 48.6 µM); difference in MIC among the three P. aeruginosa strains tested ([8]; PAO1, PAO200, PAO750): no difference; MIC ([12]; ATCC 33592): 16 µg/mL (≈ 12.2 µM); fold better MIC than colistin ([12]; methicillin-resistant Staphylococcus aureus): 32 fold; MIC ([13]; ATCC 29213): 16 µg/mL (≈ 12.2 µM); fold better MIC than colistin ([14]; methicillin-susceptible Staphylococcus epidermidis): 32 fold; MIC ([15]; ATCC 13883): >128 µg/mL; MIC [16]; 116381: >128 µg/mL; MIC [19]; 110193: 16 µg/mL (≈ 12.2 µM); MIC ([20]; ATCC 17978): 32 µg/mL (≈ 24.3 µM); MIC ([22]; CAN-ICU 63169): 64 µg/mL (≈ 48.6 µM); MIC ([23]; AB031): 8 µg/mL (≈ 6.08 µM)
